Test results from PubChem BioAssay (NCI).
Several values for one entry are separate records, joined by “and”; a condition that tells them apart may be missing. Equal values may be shown once.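 Dose response: 5 concentrations. Exposure: 48 h. Format: 96-well plates. Endpoint: linear interpolation; highest concentration if not reached. At the GI50, growth is halved. TGI marks complete inhibition of growth.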

Assays:
Test in all cases: growth of human tumour cells (NCI), 48 h
[1] = system: OVCAR-3 ovarian
[2] = system: U251 CNS
[3] = system: SN12C renal
[4] = system: OVCAR-4 ovarian
[5] = system: A498 renal
[6] = system: SK-MEL-5 melanoma
[7] = system: NCI-H460 lung
[8] = system: NCI-H226 lung
[9] = system: UACC-62 melanoma
[10] = system: HT29 colon

Structure (SMILES) | TGI [1] [µM] | TGI [2] [µM] | TGI [3] | TGI [4] | TGI [5] [µM] | TGI [6] [µM] | TGI [7] | TGI [8] | TGI [9] [µM] | TGI [10] | GI50 [1] [µM] | GI50 [2] [µM] | GI50 [3] [µM] | GI50 [4] [µM] | GI50 [5] [µM] | GI50 [6] [µM] | GI50 [7] [µM] | GI50 [8] [µM] | GI50 [9] [µM] | GI50 [10] [µM]
N#CCCN(CCC#N)c1ccc(/C=C(/NC(=O)c2cc([N+](=O)[O-])ccc2Cl)C(=O)NN)cc1 | > 100 | > 100 | > 100 µM | > 100 µM | > 100 | > 100 | > 100 µM | > 100 µM | > 100 | > 100 µM |  |  |  |  |  |  |  |  |  | 
CN1CCN(Cc2ccc(NC(=O)c3cncc(C#Cc4c(N)ncc5ccc(C#N)cc45)c3)cc2C(F)(F)F)CC1 | 14.3 | 1.67 | 7.35 µM | 1.37 µM | 6.35 | 1.54 | 1.77 µM | 14.5 µM | 1.42 | 1.17 µM | 3.61 | 0.864 | 2.97 | 0.558 | 1.07 | 0.785 | 0.878 | 0.294 | 0.668 | 0.079
NC1N=Nc2ccccc21 (centres undefined) | > 100 | > 100 | > 100 µM | > 100 µM |  |  | > 100 µM | > 100 µM |  | > 100 µM |  |  |  |  |  |  |  |  |  | 
c1ccc2c(c1)SC(=C1Sc3ccccc3S1)S2 | > 100 | > 100 | > 100 µM | > 100 µM |  |  | > 100 µM |  | > 100 | > 100 µM |  |  |  |  |  |  |  |  |  | 
COc1cc(-c2cc3ncccc3c3nc(OCCN(C)C)c4cccnc4c23)cc(OC)c1OC | 3.09 | 1.66 | 3.09 µM | 2.52 µM |  | 1.96 | 1.88 µM | 2.46 µM | 2.45 | > 100 µM | 0.64 | 0.391 | 0.581 | 0.418 |  | 0.468 | 0.349 | 0.623 | 0.42 | 0.383
[O-]/N=[N+](/[O-])C1CCCCC1=[N+]1CCOCC1 (centres undefined) | > 100 | > 100 | > 100 µM | > 100 µM | > 100 |  | > 100 µM | > 100 µM | > 100 | > 100 µM |  |  |  |  |  |  |  |  |  | 
N/C=N/S(=O)(=O)c1ccc(NC(=O)COC(=O)c2cccc3c(=O)c4ccccc4[nH]c23)cc1 | > 100 | > 100 | > 100 µM |  |  | > 100 | > 100 µM | > 100 µM | > 100 | > 100 µM |  |  |  |  |  |  |  |  |  | 
COc1cc2c(c(O)c1Cl)C(=O)c1c(O)cc(C[C@H](C)O)cc1[C@H]2[C@H]1c2cc(C[C@H](C)O)cc(O)c2C(=O)c2c1cc(OC)c(Cl)c2O |  |  | 75 µM and > 100 µM | 75 µM and > 100 µM |  |  | 17.7 µM and 52.1 µM | 75 µM and 98.1 µM |  | 75 µM and > 100 µM |  |  |  |  |  |  |  |  |  | 
CN1C(=O)CC2(C)c3cc(O)cc(Br)c3N(C)C12 (centres undefined) | > 100 | > 100 | > 100 µM |  | > 100 | > 100 | > 100 µM | > 100 µM | > 100 | > 100 µM |  |  |  |  |  |  |  |  |  | 
COC(=O)Oc1nn(C(=O)OC)c(=O)c2ccccc12 | > 100 | > 100 | > 100 µM |  |  | > 100 |  | > 100 µM | > 100 |  |  |  |  |  |  |  |  |  |  | 
CCc1ccccc1NC(=O)C(C#N)C1=C(Cl)C(=O)c2ccccc2C1=O (centres undefined) | > 100 | 29.8 | 27.9 µM | 27.6 µM |  | 29.6 | 40.6 µM | 30.4 µM | 31.2 | 37.9 µM |  |  |  |  |  |  |  |  |  | 
O=C(COc1ccccc1Cl)N1N=C(c2ccccc2)CC1(O)c1ccccc1 (centres undefined) | 33.6 | 23.9 | 25.6 µM | 23.4 µM |  |  | 32 µM | 35.9 µM | 33.5 | 30.7 µM |  |  |  |  |  |  |  |  |  | 
CCCCCCCCCCCCCC[n+]1ccccc1 | 2.26 | 1.77 | 2.5 µM | 2.91 µM | 3.57 | 1.43 | 2.73 µM |  | 2.34 | 1.46 µM | 0.674 | 0.426 | 0.926 | 0.32 | 0.717 | 0.369 | 1.22 |  | 0.96 | 0.269
COC(=O)C1CSC(c2csc(CCN)n2)=N1 (centres undefined) | > 100 | > 100 | > 100 µM | > 100 µM |  | > 100 | > 100 µM | > 100 µM | > 100 | > 100 µM |  |  |  |  |  |  |  |  |  | 
O=C1/C(=C/c2ccc([N+](=O)[O-])s2)Oc2cc(Cl)ccc21 | 0.898 | 2.21 | > 100 µM |  | > 85.2 | 2.57 | > 100 µM | > 21.8 µM | 3.14 |  | 0.325 | 1.02 | 2.36 |  | 29.8 | 1.2 | 1.84 | 3.83 | 0.998 | 
